In patent US7998995B2 (Exelixis Patent Company LLC, priority 2006, dated 2011):

Each compound was assayed on T1, LXR (assay: Measured EC50 or IC50 for LXR (LXRα and/or LXRβ; assay and subtype not given)). Conditions: IC50 or EC50 class, subtype not specified.
T1 construct: fused on or other part: GST fused to the LBD in the FRET assay
Experimental: Measured EC50 or IC50 for LXR, and FXR for Compounds of the Invention
LXR and FXR activities for various compounds of the invention are presented in the following table; those compounds with EC50 or IC50 values <10 μM for at least one of LXRα, LXRβ or FXR are considered to be active. In the following Table, IC50 or EC50 data is represented as follows: A<1 μM, B=1-10 μm, and C>10 μM.
`Cc1cc(OCc2cc(C(F)(F)F)nn2-c2ccccc2Cl)ccc1-c1cccc(S(C)(=O)=O)c1` [Example 910, 1-(2-chlorophenyl)-5-({[2-methyl-3′-(methylsulfonyl)biphenyl-4-]oxy}methyl)-3-(trifluoromethyl)-1H-pyrazole] showed an EC50 of 1 to 10 µM. `CS(=O)(=O)c1cccc(-c2ccc(OCc3cc(C(F)(F)F)nn3-c3ccccc3Cl)cc2Cl)c1` [Example 911, 5-({[2-chloro-3′-(methylsulfonyl)biphenyl-4-yl]oxy}methyl)-1-(2-chlorophenyl)-3-(trifluoromethyl)-1H-pyrazole] was tested, and the EC50 was less than 1 µM. Compound `FC(F)(F)c1cc(COc2ccc(-n3cccc3)cc2)n(-c2c(Cl)cccc2Cl)n1` [Example 922, 1-(2,6-dichlorophenyl)-5-({[4-(1H-pyrrol-1-yl)phenyl]oxy}methyl)-3-(trifluoromethyl)-1H-pyrazole] has an EC50 of less than 1 µM. Work on `FC(F)(F)c1cc(COc2ccc(-n3ccnc3)cc2)n(-c2c(Cl)cccc2Cl)n1` [Example 923, 1-(2,6-dichlorophenyl)-5-({[4-(1H-imidazol-1-yl)phenyl]oxy}methyl)-3-(trifluoromethyl)-1H-pyrazole] yielded an EC50 of less than 1 µM. `FC(F)(F)c1cc(COc2ccc(-c3ccccc3)cc2)n(-c2c(Cl)cccc2Cl)n1` [Example 924, 5-[(biphenyl-4-yloxy)methyl]-1-(2,6-dichlorophenyl)-3-(trifluoromethyl)-1H-pyrazole] gave an EC50 of 1 to 10 µM. In the case of `CS(=O)(=O)c1cccc(-c2ccc(OCc3cc(C(F)(F)F)nn3-c3ccccc3Cl)c(F)c2)c1` [Example 925, 1-(2-chlorophenyl)-5-({[3-fluoro-3′-(methylsulfonyl)biphenyl-4-yl]oxy}methyl)-3-(trifluoromethyl)-1H-pyrazole], the EC50 is reported as less than 1 µM. In the case of `CS(=O)(=O)c1cccc(-c2ccc(OCc3cc(C(F)(F)F)nn3-c3ccccc3Cl)c(C#N)c2)c1` [Example 926, 4-({[1-(2-chlorophenyl)-3-(trifluoromethyl)-1H-pyrazol-5-yl]methyl}oxy)-3′-(methylsulfonyl)biphenyl-3-carbonitrile], the EC50 is reported as 1 to 10 µM. With `CS(=O)(=O)c1cccc(-c2ccc(NCc3cc(C(F)(F)F)nn3-c3ccccc3Cl)cc2)c1` [Example 928, N-{[1-(2-chlorophenyl)-3-(trifluoromethyl)-1H-pyrazol-5-yl]methyl}-3′-(methylsulfonyl)biphenyl-4-amine] the EC50 was less than 1 µM. With `COc1cc(-c2ccc(-c3cccc(S(C)(=O)=O)c3)s2)n(-c2ccccc2Cl)n1` [Example 933, 1-(2-chlorophenyl)-3-(methyloxy)-5-{5-[3-(methylsulfonyl)phenyl]-2-thienyl}-1H-pyrazole] the EC50 was greater than 10 µM. With `CC1(C)COC(c2cn(-c3ccc(-c4cccc(S(C)(=O)=O)c4)cc3Cl)c(-c3c(Cl)cccc3Cl)n2)=N1` [Example 934, 2-{1-[3-chloro-3′-(methylsulfonyl)biphenyl-4-yl]-2-(2,6-dichlorophenyl)-1H-imidazol-4-yl}-4,4-dimethyl-4,5-dihydro-1,3-oxazole] the EC50 was less than 1 µM. With `CCS(=O)(=O)c1cccc(-c2ccc(-n3cc(C4=NC(C)(C)CO4)nc3-c3c(Cl)cccc3Cl)c(Cl)c2)c1` [Example 935, 2-{1-[3-chloro-3′-(ethylsulfonyl)biphenyl-4-yl]-2-(2,6-dichlorophenyl)-1H-imidazol-4-yl}-4,4-dimethyl-4,5-dihydro-1,3-oxazole] the EC50 was less than 1 µM. `CS(=O)(=O)c1cccc(-c2ccc(-n3cc(C4=NCCO4)nc3-c3c(Cl)cccc3Cl)c(Cl)c2)c1` [Example 936, 2-{1-[3-chloro-3′-(methylsulfonyl)biphenyl-4-yl]-2-(2,6-dichlorophenyl)-1H-imidazol-4-yl}-4,5-dihydro-1,3-oxazole] gave an EC50 of less than 1 µM. For `CC1CN=C(c2cn(-c3ccc(-c4cccc(S(C)(=O)=O)c4)cc3Cl)c(-c3c(Cl)cccc3Cl)n2)O1` (stereo not shown) [Example 937, 2-{1-[3-chloro-3′-(methylsulfonyl)biphenyl-4-yl]-2-(2,6-dichlorophenyl)-1H-imidazol-4-yl}-5-methyl-4,5-dihydro-1,3-oxazole], the EC50 was less than 1 µM. `CC1COC(c2cn(-c3ccc(-c4cccc(S(C)(=O)=O)c4)cc3Cl)c(-c3c(Cl)cccc3Cl)n2)=N1` (stereo not shown) [Example 938, 2-{1-[3-chloro-3′-(methylsulfonyl)biphenyl-4-yl]-2-(2,6-dichlorophenyl)-1H-imidazol-4-yl}-4-methyl-4,5-dihydro-1,3-oxazole] gave an EC50 of less than 1 µM. `CC1(C)COC(c2cn(-c3ccc(-c4cccc(S(C)(=O)=O)c4)cc3)c(-c3c(Cl)cccc3Cl)n2)=N1` [Example 939, 2-{2-(2,6-dichlorophenyl)-1-[3′-(methylsulfonyl)biphenyl-4-yl]-1H-imidazol-4-yl}-4,4-dimethyl-4,5-dihydro-1,3-oxazole] was tested, and the EC50 was less than 1 µM. For `CC1(C)CSC(c2cn(-c3ccc(-c4cccc(S(C)(=O)=O)c4)cc3Cl)c(-c3c(Cl)cccc3Cl)n2)=N1` [Example 940, 2-{1-[3-chloro-3′-(methylsulfonyl)biphenyl-4-yl]-2-(2,6-dichlorophenyl)-1H-imidazol-4-yl}-4,4-dimethyl-4,5-dihydro-1,3-thiazole], the EC50 was less than 1 µM. Work on `CS(=O)(=O)c1cccc(-c2ccc(-n3cc(C4=NCCN4)nc3-c3c(Cl)cccc3Cl)c(Cl)c2)c1` [Example 941, 1′-[3-chloro-3′-(methylsulfonyl)biphenyl-4-yl]-2′-(2,6-dichlorophenyl)-4,5-dihydro-1H,1′H-2,4′-biimidazole] yielded an EC50 of 1 to 10 µM. `CC1(C)CN=C(c2cn(-c3ccc(-c4cccc(S(C)(=O)=O)c4)cc3Cl)c(-c3c(Cl)cccc3Cl)n2)N1` [Example 942, 1′-[3-chloro-3′-(methylsulfonyl)biphenyl-4-yl]-2′-(2,6-dichlorophenyl)-5,5-dimethyl-4,5-dihydro-1H,1′H-2,4′-biimidazole] was tested, and the EC50 was greater than 10 µM. In the case of `CC1(C)CN=C(c2cn(-c3ccc(-c4cccc(S(C)(=O)=O)c4)cc3)c(-c3c(Cl)cccc3Cl)n2)N1` [Example 943, 2′-(2,6-dichlorophenyl)-5,5-dimethyl-1′-[3′-(methysulfonyl)biphenyl-4-yl]-4,5-dihydro-1H,1′H-2,4′-biimidazole], the EC50 is reported as greater than 10 µM. With `Cc1noc(-c2cn(-c3ccc(-c4cccc(S(C)(=O)=O)c4)cc3Cl)c(-c3c(Cl)cccc3Cl)n2)n1` [Example 944, 5-{1-[3-chloro-3′-(methylsulfonyl)biphenyl-4-yl]-2-(2,6-dichlorophenyl)-1H-imidazol-4-yl}-3-methyl-1,2,4-oxadiazole] the EC50 was less than 1 µM. With `CC(C)(c1ccccc1Cl)c1nc(C2CCCN2)cn1-c1ccc(-c2cccc(S(C)(=O)=O)c2)cc1` (stereo not shown) [Example 976, 2-[1-(2-Chlorophenyl)-1-methylethyl]-1-[3′-(methylsulfonyl)biphenyl-4-yl]-4-pyrrolidin-2-yl-1H-imidazole] the EC50 was 1 to 10 µM. Work on `COC(=O)N1CCCC1c1cn(-c2ccc(-c3cccc(S(C)(=O)=O)c3)cc2)c(C(C)(C)c2ccccc2Cl)n1` (stereo not shown) [Example 977, Methyl 2-{2-[1-(2-chlorophenyl)-1-methylethyl]-1-[3′-(methylsulfonyl)biphenyl-4-yl]-1H-imidazol-4-yl}pyrrolidine-1-carboxylate] yielded an EC50 of less than 1 µM. In the case of `CC(=O)N1CCCC1c1cn(-c2ccc(-c3cccc(S(C)(=O)=O)c3)cc2)c(C(C)(C)c2ccccc2Cl)n1` (stereo not shown) [Example 978, 4-(1-acetylpyrrolidin-2-yl)-2-[1-(2-chlorophenyl)-1-methylethyl]-1-[3′-(methylsulfonyl)biphenyl-4-yl]-1H-imidazole], the EC50 is reported as less than 1 µM. `CN1CCCC1c1cn(-c2ccc(-c3cccc(S(C)(=O)=O)c3)cc2)c(C(C)(C)c2ccccc2Cl)n1` (stereo not shown) [Example 979, 2-[1-(2-chlorophenyl)-1-methylethyl]-4-(1-methylpyrrolidin-2-yl)-1-[3′-(methylsulfonyl)biphenyl-4-l]-1H-imidazole] showed an EC50 of 1 to 10 µM. With `CS(=O)(=O)c1cccc(-c2ccc(-n3cc(C4(O)CC4)nc3-c3ccccc3Cl)cc2)c1` [Example 980, 1-(2-(2-chlorophenyl)-1-(3′-(methylsulfonyl)biphenyl-4-yl)-1H-imidazol-4-yl)cyclopropanol] the EC50 was less than 1 µM. Work on `CS(=O)(=O)c1cccc(-c2ccc(-n3cc(C4(O)CCCC4)nc3-c3ccccc3Cl)cc2)c1` [Example 981, 1-(2-(2-chlorophenyl)-1-(3′-(methylsulfonyl)biphenyl-4-yl)-1H-imidazol-4-yl)cyclopentanol] yielded an EC50 of 1 to 10 µM. `CC1(C)CC(=O)C=C(c2cn(-c3ccc(-c4cccc(S(C)(=O)=O)c4)cc3Cl)c(-c3ccccc3Cl)n2)O1` [Example 982, 6-[1-(3-Chloro-3′-methanesulfonyl-biphenyl-4-yl)-2-(2-chlorophenyl)-1-H-imidazol-4-yl]-2,2-dimethyl-2,3-dihydro-pyran-4-one] showed an EC50 of less than 1 µM. `CN1CC(c2cn(-c3ccc(-c4cccc(S(C)(=O)=O)c4)cc3Cl)c(-c3ccccc3Cl)n2)CC1=O` (stereo not shown) [Example 984, 4-[1-(3-Chloro-3′-methanesulfonyl-biphenyl-4-yl)-2-(2-chlorophenyl)-1-H-imidazol-4-yl]-1-methyl-pyrrolidin-2-one] was tested, and the EC50 was less than 1 µM. Compound `CS(=O)(=O)c1cccc(-c2ccc(-n3cc(-c4cc(C(F)(F)F)on4)nc3-c3ccccc3Cl)c(Cl)c2)c1` [Example 990, 3-(1-(3-chloro-3′-(methylsulfonyl)biphenyl-4-yl)-2-(2-chlorophenyl)-1H-imidazol-4-yl)-5-(trifluoromethyl)isoxazole] has an EC50 of 1 to 10 µM. In the case of `CS(=O)(=O)c1cccc(-c2ccc(-n3cc(C4CC4)nc3-c3ccccc3C(F)(F)F)cc2)c1` [Example 991, 4-cyclopropyl-1-(3′-(methylsulfonyl)biphenyl-4-yl)-2-(2-(trifluoromethyl)phenyl)-1H-imdazole], the EC50 is reported as less than 1 µM. `CS(=O)(=O)c1cccc(-c2ccc(-n3cc(-c4ccsc4)nc3-c3cccc(Cl)c3Cl)cc2)c1` [Example 992, 2-(2,3-dichlorophenyl)-1-(3′-(methylsulfonyl)biphenyl-4-yl)-4-(thiophen-3-yl)-1H-imidazole] showed an EC50 of less than 1 µM.
